How the values were obtained:
HRV (17) = assay: Antirhinoviral H1-HeLa cell culture assay, HRV serotype 17; assay type: cell-based, human rhinovirus; conditions: Human rhinovirus sp., H1-HeLa cells, XTT
Method: (§1) In this cell protection assay, the ability of compounds to protect cells against HRV infection was measured by the XTT dye reduction method, which is described in Weislow et al., J. Natl. Cancer Inst. 1989, vol. 81, 577-586.
(§2) H1-HeLa cells were infected with HRV-14 at a multiplicity of infection (m.o.i.) of 0.13 (virus particles/cell) or mock-infected with medium only. Infected or mock-infected cells were resuspended at 8×10^5 cells per mL, and incubated with appropriate concentrations of the compounds to be tested. Two days later, XTT/PMS was added to test plates and the amount of formazan produced was quantified spectrophotometrically at 450/650 nm. The EC50 value was calculated as the concentration of compound that increased the percentage of formazan production in compound-treated, virus-infected cells to 50% of that produced by compound-free, mock-infected cells. The 50% cytotoxic dose (CC50) was calculated as the concentration of compound that decreased the percentage of formazan produced in compound-treated, mock-infected cells to 50% of that produced by compound-free, mock-infected cells. The therapeutic index (TI) was calculated by dividing the CC50 value by the EC50 value.
(§3) All strains of human rhinovirus (HRV) for use in this assay were purchased from American Type Culture Collection (ATCC), except for HRV serotype-14 (produced from the infectious cDNA clone constructed by Dr. Robert Rueckert, Institute for Molecular Virology, University of Wisconsin, Madison, Wis.). HRV stocks were propagated and viral assays were performed in H1-HeLa cells (ATCC). Cells were grown in minimal essential medium with 10% fetal bovine serum, available from Life Technologies (Gaithersburg, Md.).
(§4) The compounds were tested against control compounds WIN 51711, WIN 52084, and WIN 54954 (obtained from Sterling-Winthrop Pharmaceuticals), Pirodavir (obtained from Janssen Pharmaceuticals), and Pleconaril (prepared according to the method described in Diana et al., J. Med. Chem 1995, vol. 38, 1355). […]

HRV (2) = assay: Antirhinoviral H1-HeLa cell culture assay, HRV serotype 2; assay type: cell-based, human rhinovirus; conditions: Human rhinovirus sp., H1-HeLa, H1-HeLa cells, XTT
Method: as §1, §2, §3
(§5) The compounds were tested against control compounds WIN 51711, WIN 52084, and WIN 54954 (obtained from Sterling-Winthrop Pharmaceuticals), Pirodavir (obtained from Janssen Pharmaceuticals), and Pleconaril (prepared according to the method described in Diana et al., J. Med. Chem 1995, vol. 38, 1355). Antiviral data obtained for the test compounds are shown in Tables 1 and 3, where all data are for HRV serotype-14 unless otherwise noted in parentheses.

HRV (39) = assay: Antirhinoviral H1-HeLa cell culture assay, HRV serotype 39; assay type: cell-based, human rhinovirus; conditions: Human rhinovirus sp., H1-HeLa cells, XTT
Method: as §1, §2, §3, §4

HRV (30) = assay: Antirhinoviral H1-HeLa cell culture assay, HRV serotype 30; assay type: cell-based; conditions: Human rhinovirus sp., H1-HeLa cells, XTT
Method: as §1
as §2, with “value. […]” for “value.”

[1] = test system: enterovirus type 70 (EV 70); assay: Anti-enteroviral cell culture assay, EV 70; assay type: cell-based; conditions: Enterovirus D, MRC5, 96 h; Strain EV-70; MRC-5 cells; four days; XTT
Method: Echovirus type 11 (EV 11) and enterovirus type 70 (EV 70) were purchased from ATCC (Rockville, Md.). Virus stocks were propagated and antiviral assays were performed in MRC-5 cells (ATCC). Cells were grown in minimal essential medium with 10% fetal bovine serum (Life Technologies, Gaithersburg, Md.).
The ability of compounds to protect cells against either EV 11 or EV 70 infection was measured by the XTT dye reduction method (Weislow et al., J. Natl. Cancer Inst. 1989, vol. 81, 577-586). MRC-5 cells were infected with EV 11 or EV 70 at an m.o.i. of 0.003 or 0.004, respectively, or mock-infected with medium only. Infected or uninfected cells were added at 1×10^4 cells per well and incubated with appropriate concentrations of compound. Four days later, XTT/PMS was added to test plates, and the amount of formazan produced was quantified spectrophotometrically at 450/650 nm. The EC50 was calculated as the concentration of compound that increased the formazan production in compound-treated, virus-infected cells to 50% of that produced by compound-free, uninfected cells. The 50% cytotoxic dose (CC50) was calculated as the concentration of compound that decreased formazan production in compound-treated, uninfected cells to 50% of that produced in compound-free, uninfected cells. The therapeutic index (TI) was calculated by dividing the CC50 by the EC50. […]

HRV (16) = assay: Antirhinoviral H1-HeLa cell culture assay, HRV serotype 16; assay type: cell-based; conditions: Human rhinovirus sp., H1-HeLa cells, XTT
Method: as §1, §2, §3, §4

HRV (89) = assay: Antirhinoviral H1-HeLa cell culture assay, HRV serotype 89; assay type: cell-based, human rhinovirus; conditions: Human rhinovirus sp., H1-HeLa cells, XTT
Method: as §1, §2, §3, §5

HRV (38) = assay: Antirhinoviral H1-HeLa cell culture assay, HRV serotype 38; assay type: cell-based; conditions: Human rhinovirus sp., H1-HeLa cells, XTT
Method: as §1
as §2, with “value. […]” for “value.”

[2] = test system: Coxsackievirus type B3 (CVB-3); assay: Anticoxsackieviral cell culture assay, CVB-3; assay type: cell-based; conditions: 24 h, Strain CVB-3, H1-HeLa cells, one day, XTT, read-out: EC50
Method: Coxsackievirus types A-21 (CAV-21) and B3 (CVB-3) were purchased from American Type Culture Collection (ATCC, Rockville, Md.). Virus stocks were propagated and antiviral assays were performed in H1-HeLa cells (ATCC). Cells were grown in minimal essential medium with 10% fetal bovine serum (Life Technologies, Gaithersburg, Md.).
The ability of compounds to protect cells against either CAV-21 or CVB-3 infection was measured by the XTT dye reduction method. This method is described in Weislow et al., J. Natl. Cancer Inst. 1989, vol. 81, 577-586. H1-HeLa cells were infected with CAV-21 or CVB-3 at a multiplicity of infection (m.o.i.) of 0.025 or 0.075, respectively, or mock-infected with medium only. H1-HeLa cells were plated at 4×10^4 cells per well in a 96-well plate and incubated with appropriate concentrations of the test compound. One day (CVB-3) or two days (CAV-21) later, XTT/PMS was added to test plates and the amount of formazan produced was quantified spectrophotometrically at 450/650 nm. The EC50 was calculated as the concentration of compound that increased the formazan production in compound-treated, virus-infected cells to 50% of that produced by compound-free, uninfected cells. The 50% cytotoxic dose (CC50) was calculated as the concentration of compound that decreased formazan production in compound-treated, uninfected cells to 50% of that produced in compound-free, uninfected cells. The therapeutic index TI) was calculated by dividing the CC50 by the EC50.
The compounds were tested against control compounds WIN 54954 (obtained from Sterling-Winthrop Pharmaceuticals), Pirodavir (obtained from Janssen Pharmaceuticals), and Pleconaril (prepared according to Diana et al., J. Med. Chem. 1995, 38, 1355).

HRV (3) = assay: Antirhinoviral H1-HeLa cell culture assay, HRV serotype 3; assay type: cell-based, human rhinovirus; conditions: Human rhinovirus sp., H1-HeLa, H1-HeLa cells, XTT
Method: as §1, §2, §3, §4

## CCOC(=O)/C=C/[C@H](C[C@@H]1CCNC1=O)NC(=O)[C@@H](CC(=O)[C@@H](NC(=O)c1cc(C)on1)C(C)C)Cc1ccc(F)cc1 [Compound B-2, Ethyl-3-{(5′-Methylisoxazole-3′-carbonyl)-L-ValΨ(COCH2)-L-(4-F-Phe)-L-((S)-Pyrrol-Ala)}-E-Propenoate]
HRV (17)
  EC50: 10 nM
HRV (2)
  EC50: 20 nM
HRV (39)
  EC50: 50 nM
HRV (30)
  EC50: 40 nM
[1]
  EC50: 3 nM
HRV (16)
  EC50: 10 nM
HRV (89)
  EC50: 9 nM
HRV (38)
  EC50: 70 nM
[2]
  EC50: 180 nM
HRV (3)
  EC50: 20 nM

Reference: patent publication US20060046966A1, “Antipicornaviral compounds and compositions, their pharmaceutical uses, and materials for their synthesis” (Agouron Pharmaceuticals, Inc., priority 1998, published 2006)
